According to US10597388B2, “Pyridazinone herbicides” (FMC CORPORATION, priority 2014, dated 2020):

What was measured:
Experiment in all cases: Test D controlled growth environment herbicide test, pre- and postemergence
Assay type in all cases: in vivo
[1] = tested on: kochia (Kochia scoparia)
How it was run: (§1)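 Rating is visual, 0–100 scale (100 = complete control), made against untreated plants 14–21 d after treatment in controlled growth conditions. Postemergence sprays went onto 1- to 4-leaf plants in peat medium; preemergence sprays onto silt loam after sowing; formulation included a surfactant.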

[2] = tested on: blackgrass (Alopecurus myosuroides)
How it was run: as §1

[3] = tested on: Russian thistle (Salsola kali)
How it was run: as §1

[4] = tested on: ryegrass, Italian (Italian ryegrass, Lolium multiflorum)
How it was run: as §1

[5] = tested on: bluegrass (annual bluegrass, Poa annua)
How it was run: as §1

[6] = tested on: pigweed (Amaranthus retroflexus)
How it was run: as §1

[7] = tested on: field poppy (Papaver rhoeas)
How it was run: as §1

[8] = tested on: canarygrass (Phalaris minor)
How it was run: as §1

[9] = tested on: foxtail, green (green foxtail, Setaria viridis)
How it was run: as §1

[10] = tested on: galium (catchweed bedstraw, Galium aparine)
How it was run: as §1

[11] = tested on: wheat, winter (winter wheat, Triticum aestivum)
How it was run: as §1

[12] = tested on: chickweed (common chickweed, Stellaria media)
How it was run: as §1

[13] = tested on: buckwheat, wild (wild buckwheat, Polygonum convolvulus)
How it was run: as §1

[14] = Postemergence, 31 g ai/ha, scale 0 to 100 (0 no effect, 100 complete control)
[15] = Postemergence, 125 g ai/ha, visual rating on scale 0 (no effect) to 100 (complete control), 14 to 21 d
[16] = Postemergence, 250 g ai/ha, scale 0 to 100 (0 no effect, 100 complete control)
[17] = Preemergence, 125 g ai/ha, scale 0 to 100 (0 no effect, 100 complete control)
[18] = Preemergence, 250 g ai/ha, scale 0 to 100 (0 no effect, 100 complete control)
[19] = postemergence, 62 g ai/ha, scale 0 to 100, 0 no effect, 100 complete control
[20] = Preemergence, 62 g ai/ha, scale 0 to 100 (0 no effect, 100 complete control)

## CC(=O)Oc1c(C)nn(C)c(=O)c1-c1ccc(F)c2ccccc12 [Compound 90]
[1]; [14]
  Kochia plant response rating: 85
[1]; [15]
  Plant response rating, Kochia: 100
[1]; [16]
  Plant response rating, Kochia: 100
[1]; Preemergence, 31 g ai/ha
  Plant response rating (scale of 0 to 100), Kochia: 75
[1]; Preemergence, 62 g ai/ha
  Plant response rating (scale of 0 to 100), Kochia: 65
[1]; [17]
  Plant response rating, Kochia: 90
[1]; [18]
  Plant response rating, Kochia: 80
[1]; [19]
  Plant response rating, Kochia: 100
[2]; [14]
  Blackgrass plant response rating: 15
[2]; [15]
  Plant response rating, Blackgrass: 55
[2]; [16]
  Plant response rating, Blackgrass: 65
[2]; Preemergence, 31 g ai/ha
  Plant response rating (scale of 0 to 100), Blackgrass: 25
[2]; [20]
  Plant response rating, Blackgrass: 35
[2]; [17]
  Plant response rating, Blackgrass: 45
[2]; [18]
  Plant response rating, Blackgrass: 60
[2]; [19]
  Plant response rating, Blackgrass: 35
[3]; [14]
  Russian Thistle plant response rating: 30
[3]; [15]
  Plant response rating, Russian Thistle: 75
[3]; [16]
  Plant response rating, Russian Thistle: 90
[3]; Preemergence, 31 g ai/ha
  Plant response rating (scale of 0 to 100), Russian Thistle: 10
[3]; Preemergence, 62 g ai/ha
  Plant response rating (scale of 0 to 100), Russian Thistle: 15
[3]; [17]
  Plant response rating, Russian Thistle: 35
[3]; [18]
  Plant response rating, Russian Thistle: 60
[3]; [19]
  Plant response rating, Russian Thistle: 75
[4]; [14]
  Ryegrass, Italian plant response rating: 75
[4]; [15]
  Plant response rating, Ryegrass, Italian: 95
[4]; [16]
  Plant response rating, Ryegrass, Italian: 100
[4]; Preemergence, 31 g ai/ha
  Plant response rating (scale of 0 to 100), Ryegrass, Italian: 100
[4]; Preemergence, 62 g ai/ha
  Plant response rating (scale of 0 to 100), Ryegrass, Italian: 100
[4]; [17]
  Plant response rating, Ryegrass, Italian: 100
[4]; [18]
  Plant response rating, Ryegrass, Italian: 100
[4]; [19]
  Plant response rating, Ryegrass, Italian: 90
[5]; [14]
  Bluegrass plant response rating: 5
[5]; [15]
  Plant response rating, Bluegrass: 25
[5]; [16]
  Plant response rating, Bluegrass: 30
[5]; Preemergence, 31 g ai/ha
  Plant response rating (scale of 0 to 100), Bluegrass: 0
[5]; [20]
  Plant response rating, Bluegrass: 40
[5]; [17]
  Plant response rating, Bluegrass: 65
[5]; [18]
  Plant response rating, Bluegrass: 65
[5]; [19]
  Plant response rating, Bluegrass: 15
[6]; [14]
  Pigweed plant response rating: 80
[6]; [15]
  Plant response rating, Pigweed: 95
[6]; [16]
  Plant response rating, Pigweed: 100
[6]; Preemergence, 31 g ai/ha
  Plant response rating (scale of 0 to 100), Pigweed: 25
[6]; Preemergence, 62 g ai/ha
  Plant response rating (scale of 0 to 100), Pigweed: 35
[6]; [17]
  Plant response rating, Pigweed: 100
[6]; [18]
  Plant response rating, Pigweed: 100
[6]; [19]
  Plant response rating, Pigweed: 90
[7]; [14]
  Field Poppy plant response rating: 65
[7]; [15]
  Plant response rating, Field Poppy: 75
[7]; [16]
  Plant response rating, Field Poppy: 90
[7]; Preemergence, 31 g ai/ha
  Plant response rating (scale of 0 to 100), Field Poppy: 15
[7]; Preemergence, 62 g ai/ha
  Plant response rating (scale of 0 to 100), Field Poppy: 100
[7]; [17]
  Plant response rating, Field Poppy: 100
[7]; [18]
  Plant response rating, Field Poppy: 100
[7]; [19]
  Plant response rating, Field Poppy: 70
[8]; [14]
  Canarygrass plant response rating: 25
[8]; [15]
  Plant response rating, Canarygrass: 75
[8]; [16]
  Plant response rating, Canarygrass: 75
[8]; Preemergence, 31 g ai/ha
  Plant response rating (scale of 0 to 100), Canarygrass: 50
[8]; Preemergence, 62 g ai/ha
  Plant response rating (scale of 0 to 100), Canarygrass: 75
[8]; [17]
  Plant response rating, Canarygrass: 85
[8]; [18]
  Plant response rating, Canarygrass: 95
[8]; [19]
  Plant response rating, Canarygrass: 45
[9]; [14]
  Foxtail, Green plant response rating: 25
[9]; [15]
  Plant response rating, Foxtail, Green: 70
[9]; [16]
  Plant response rating, Foxtail, Green: 75
[9]; Preemergence, 31 g ai/ha
  Plant response rating (scale of 0 to 100), Foxtail, Green: 25
[9]; Preemergence, 62 g ai/ha
  Plant response rating (scale of 0 to 100), Foxtail, Green: 45
[9]; [17]
  Plant response rating, Foxtail, Green: 70
[9]; [18]
  Plant response rating, Foxtail, Green: 95
[9]; [19]
  Plant response rating, Foxtail, Green: 55
[10]; [14]
  Galium plant response rating: 98
[10]; [15]
  Plant response rating, Galium: 100
[10]; [16]
  Plant response rating, Galium: 100
[10]; Preemergence, 31 g ai/ha
  Plant response rating (scale of 0 to 100), Galium: 75
[10]; Preemergence, 62 g ai/ha
  Plant response rating (scale of 0 to 100), Galium: 75
[10]; [17]
  Plant response rating, Galium: 85
[10]; [18]
  Plant response rating, Galium: 95
[10]; [19]
  Plant response rating, Galium: 100
[11]; [14]
  Wheat, Winter plant response rating: 20
[11]; [15]
  Plant response rating, Wheat, Winter: 40
[11]; [16]
  Plant response rating, Wheat, Winter: 40
[11]; Preemergence, 31 g ai/ha
  Plant response rating (scale of 0 to 100), Wheat, Winter: 0
[11]; Preemergence, 62 g ai/ha
  Plant response rating (scale of 0 to 100), Wheat, Winter: 10
[11]; [17]
  Plant response rating, Wheat, Winter: 25
[11]; [18]
  Plant response rating, Wheat, Winter: 50
[11]; [19]
  Plant response rating, Wheat, Winter: 35
[12]; [14]
  Chickweed plant response rating: 80
[12]; [15]
  Plant response rating, Chickweed: 98
[12]; [16]
  Plant response rating, Chickweed: 100
[12]; Preemergence, 31 g ai/ha
  Plant response rating (scale of 0 to 100), Chickweed: 100
[12]; [17]
  Plant response rating, Chickweed: 100
[12]; [18]
  Plant response rating, Chickweed: 100
[12]; [19]
  Plant response rating, Chickweed: 90
[13]; [14]
  Buckwheat, Wild plant response rating: 80
[13]; [15]
  Plant response rating, Buckwheat, Wild: 100
[13]; [16]
  Plant response rating, Buckwheat, Wild: 100
[13]; Preemergence, 31 g ai/ha
  Plant response rating (scale of 0 to 100), Buckwheat, Wild: 15
[13]; [17]
  Plant response rating, Buckwheat, Wild: 40
[13]; [18]
  Plant response rating, Buckwheat, Wild: 80
[13]; [19]
  Plant response rating, Buckwheat, Wild: 90
